# How the values were obtained:
# B16F0 melanoma tumour = assay: Biodistribution in B16 melanoma bearing mice; format: in vivo, C57BL/6J mice; details: C57BL/6J mice; for Organ distribution Intestine / Organ distribution Liver / Organ distribution Spleen / Organ distribution Stomach / Organ distribution Thyroid / Organ distribution Tumour: B16F0 tumour, mean ± S.D.; for Organ distribution Intestine / Organ distribution Liver / Organ distribution Spleen / Organ distribution Stomach / Organ distribution Thyroid / Organ distribution Tumour / Uptake Lung / uptake BLOOD / uptake BRAIN / uptake HEART / uptake KIDNEY / uptake LIVER / uptake TUMOUR: n = 5; for tumour standardized uptake value (SUVt) / Uptake Lung / uptake BLOOD / uptake BRAIN / uptake HEART / uptake KIDNEY / uptake LIVER / uptake TUMOUR: B16 tumour; for Uptake Lung / uptake BLOOD / uptake BRAIN / uptake HEART / uptake KIDNEY / uptake LIVER / uptake TUMOUR: mean ± SD
# Description: Animal experiments were performed in compliance with the NHMRC Australian Code of Practice for the care and use of animals for scientific purposes. Female C57BL/6J black and BALB/c nude albino mice of 5 weeks age were obtained from the Animal Resources Centre, Western Australia. B16F0 murine melanoma cells were originally obtained from European Collection of Cell Cultures (UK) and A375 human amelanotic melanoma cells were originally obtained from American Type Culture Collection (USA). Before transplantation, B16F0 and A375 melanoma cells were maintained as a monolayer in RPMI culture medium supplemented with 10% foetal calf serum and antibiotics and passaged with trypsinisation. Early passages were frozen and stored in liquid nitrogen. Cells were passaged to P=10 and then discarded. Frozen aliquots were grown in a monolayer culture to between 80-95% confluence and for transplantation were trypsinised and washed with Ca^2+ and Mg^2+ free phosphate buffered saline (PBS). For inoculation, B16F0 melanoma cells were resuspended in Ca^2+ and Mg^2+ free PBS at 3 or 5×10^6 viable cells per ml and 0.1 ml was subcutaneously injected at the left flank of 6-7 weeks old C57BL/6J mice. Eleven days later, tumours could be palpated in >98% of inoculated animals. A375 human melanoma cells were resuspended at 1×10^7 viablecells per ml and 0.1 ml was injected subcutaneously at the left flank of 6 weeks old BALB/c nude mice and 25-26 days later tumours could be palpated with ˜60% of inoculated animals developing tumours.
# Eleven days (B16F0 melanoma) and 25 days (A375 human melanoma) after tumour transplantation, the [^18F]nicotinamides (0.5-1.5 MBq, 100 μl) and [^123I]nicotinamide (0.37-0.74 MBq, 100 μl) derivatives were injected intravenously via the tail vein into mice (15-18 g). Time points of 1, 3, 6, 24, 48, 72 h after injection were chosen for determining the distribution of each compound in various organs and tissues for the iodine-123 labelled compounds and between 15 min and 6 hours (e.g. 15 min, 30 min, 1 h, 2 h, 4 h or 6 h) were chosen for the ^18F-labelled compounds. At defined times post injection, groups of mice (n=5) were weighed, sacrificed by CO2 administration followed by cervical dislocation and dissected. Selected organs were weighed and their radioactivity measured with a γ-counter. The remaining activity in the carcass was also determined in order to obtain the total activity in the mouse at defined time points. The fraction of injected activity (% ID) in the organ was calculated by comparison with suitable dilutions of the injected dose. Then, the radioactivity concentration in the organ (% ID/g) was found by dividing the % ID for each organ by the weight of the organ.
# melanoma tumour = melanoma tumour bearing mice, cited from earlier work
compound,measurement,setting,value
"CCCN(CCC)CCCCNC(=O)c1cncc(I)c1 [[^123I]17, N-(4-(Dipropylamino)butyl)-5-iodonicotinamide]",Organ distribution Intestine,B16F0 melanoma tumour; 1 h,15 ± 1 % ID/organ
same,Organ distribution Liver,B16F0 melanoma tumour; 1 h,2.0 ± 0.1 % ID/organ
same,Organ distribution Spleen,B16F0 melanoma tumour; 1 h,0.54 ± 0.09 % ID/organ
same,Organ distribution Stomach,B16F0 melanoma tumour; 1 h,6 ± 1 % ID/organ
same,Organ distribution Thyroid,B16F0 melanoma tumour; 1 h,1.3 ± 0.4 % ID/organ
same,Organ distribution Tumour,B16F0 melanoma tumour; 1 h,0.64 ± 0.20 % ID/organ
same,Organ distribution Intestine,B16F0 melanoma tumour; 6 h,9 ± 1 % ID/organ
same,Organ distribution Liver,B16F0 melanoma tumour; 6 h,0.95 ± 0.15 % ID/organ
same,Organ distribution Spleen,B16F0 melanoma tumour; 6 h,0.13 ± 0.02 % ID/organ
same,Organ distribution Stomach,B16F0 melanoma tumour; 6 h,6 ± 2 % ID/organ
same,Organ distribution Thyroid,B16F0 melanoma tumour; 6 h,4.0 ± 0.9 % ID/organ
same,Organ distribution Tumour,B16F0 melanoma tumour; 6 h,1.0 ± 0.2 % ID/organ
same,Organ distribution Intestine,B16F0 melanoma tumour; 24 h,0.40 ± 0.07 % ID/organ
same,Organ distribution Liver,B16F0 melanoma tumour; 24 h,0.14 ± 0.03 % ID/organ
same,Organ distribution Spleen,B16F0 melanoma tumour; 24 h,0.02 ± 0.03 % ID/organ
same,Organ distribution Stomach,B16F0 melanoma tumour; 24 h,0.17 ± 0.04 % ID/organ
same,Organ distribution Thyroid,B16F0 melanoma tumour; 24 h,6.0 ± 1.6 % ID/organ
same,Organ distribution Tumour,B16F0 melanoma tumour; 24 h,0.62 ± 0.22 % ID/organ
same,tumour standardized uptake value (SUVt),B16F0 melanoma tumour; 1 h,1.8 ± 0.1
same,Uptake Lung,B16F0 melanoma tumour; 1 h,7.5 ± 0.2 % ID/g
same,uptake BLOOD,B16F0 melanoma tumour; 1 h,3.1 ± 0.1 % ID/g
same,uptake BRAIN,B16F0 melanoma tumour; 1 h,0.42 ± 0.02 % ID/g
same,uptake HEART,B16F0 melanoma tumour; 1 h,1.9 ± 0.1 % ID/g
same,uptake KIDNEY,B16F0 melanoma tumour; 1 h,3.5 ± 0.2 % ID/g
same,uptake LIVER,B16F0 melanoma tumour; 1 h,2.1 ± 0.2 % ID/g
same,uptake TUMOUR,B16F0 melanoma tumour; 1 h,5.6 ± 0.3 % ID/g
same,tumour standardized uptake value (SUVt),B16F0 melanoma tumour; 6 h,2.2 ± 0.4
same,Uptake Lung,B16F0 melanoma tumour; 6 h,2.2 ± 0.2 % ID/g
same,uptake BLOOD,B16F0 melanoma tumour; 6 h,2.4 ± 0.3 % ID/g
same,uptake BRAIN,B16F0 melanoma tumour; 6 h,0.16 ± 0.03 % ID/g
same,uptake HEART,B16F0 melanoma tumour; 6 h,0.8 ± 0.1 % ID/g
same,uptake KIDNEY,B16F0 melanoma tumour; 6 h,1.7 ± 0.3 % ID/g
same,uptake LIVER,B16F0 melanoma tumour; 6 h,1.1 ± 0.1 % ID/g
same,uptake TUMOUR,B16F0 melanoma tumour; 6 h,5.0 ± 0.7 % ID/g
same,tumour standardized uptake value (SUVt),B16F0 melanoma tumour; 24 h,5.1 ± 1.3
same,Uptake Lung,B16F0 melanoma tumour; 24 h,0.15 ± 0.3 % ID/g
same,uptake BLOOD,B16F0 melanoma tumour; 24 h,0.13 ± 0.03 % ID/g
same,uptake BRAIN,B16F0 melanoma tumour; 24 h,0.02 % ID/g
same,uptake HEART,B16F0 melanoma tumour; 24 h,0.09 ± 0.02 % ID/g
same,uptake KIDNEY,B16F0 melanoma tumour; 24 h,0.12 ± 0.03 % ID/g
same,uptake LIVER,B16F0 melanoma tumour; 24 h,0.15 ± 0.03 % ID/g
same,uptake TUMOUR,B16F0 melanoma tumour; 24 h,2.3 ± 0.4 % ID/g
"O=C(c1cncc(I)c1)N1CCN(Cc2ccccc2)CC1 [[^123I]20, (4-Benzylpiperazin-1-yl)(5-iodopyridin-3-yl)methanone]",Organ distribution Intestine,B16F0 melanoma tumour; 1 h,58 ± 2 % ID/organ
same,Organ distribution Liver,B16F0 melanoma tumour; 1 h,3.6 ± 0.9 % ID/organ
same,Organ distribution Spleen,B16F0 melanoma tumour; 1 h,0.05 ± 0.01 % ID/organ
same,Organ distribution Stomach,B16F0 melanoma tumour; 1 h,1.7 ± 0.6 % ID/organ
same,Organ distribution Thyroid,B16F0 melanoma tumour; 1 h,0.30 ± 0.08 % ID/organ
same,Organ distribution Tumour,B16F0 melanoma tumour; 1 h,2.6 ± 1.0 % ID/organ
same,Organ distribution Intestine,B16F0 melanoma tumour; 6 h,30 ± 3 % ID/organ
same,Organ distribution Liver,B16F0 melanoma tumour; 6 h,1.9 ± 0.4 % ID/organ
same,Organ distribution Spleen,B16F0 melanoma tumour; 6 h,0.04 ± 0.02 % ID/organ
same,Organ distribution Stomach,B16F0 melanoma tumour; 6 h,4 ± 3 % ID/organ
same,Organ distribution Thyroid,B16F0 melanoma tumour; 6 h,1.1 ± 0.4 % ID/organ
same,Organ distribution Tumour,B16F0 melanoma tumour; 6 h,1.7 ± 0.5 % ID/organ
same,Organ distribution Intestine,B16F0 melanoma tumour; 24 h,0.4 ± 0.1 % ID/organ
same,Organ distribution Liver,B16F0 melanoma tumour; 24 h,0.13 ± 0.04 % ID/organ
same,Organ distribution Spleen,B16F0 melanoma tumour; 24 h,0.00 ± 0.00 % ID/organ
same,Organ distribution Stomach,B16F0 melanoma tumour; 24 h,0.07 ± 0.02 % ID/organ
same,Organ distribution Thyroid,B16F0 melanoma tumour; 24 h,1.4 ± 0.6 % ID/organ
same,Organ distribution Tumour,B16F0 melanoma tumour; 24 h,0.36 ± 0.07 % ID/organ
same,tumour standardized uptake value (SUVt),B16F0 melanoma tumour; 1 h,1.5 ± 0.4
same,Uptake Lung,B16F0 melanoma tumour; 1 h,0.90 ± 0.06 % ID/g
same,uptake BLOOD,B16F0 melanoma tumour; 1 h,0.89 ± 0.07 % ID/g
same,uptake BRAIN,B16F0 melanoma tumour; 1 h,0.20 ± 0.02 % ID/g
same,uptake HEART,B16F0 melanoma tumour; 1 h,0.49 ± 0.03 % ID/g
same,uptake KIDNEY,B16F0 melanoma tumour; 1 h,4.2 ± 0.6 % ID/g
same,uptake LIVER,B16F0 melanoma tumour; 1 h,3.6 ± 0.9 % ID/g
same,uptake TUMOUR,B16F0 melanoma tumour; 1 h,6.0 ± 1.6 % ID/g
same,tumour standardized uptake value (SUVt),B16F0 melanoma tumour; 6 h,1.7 ± 0.5
same,Uptake Lung,B16F0 melanoma tumour; 6 h,0.46 ± 0.13 % ID/g
same,uptake BLOOD,B16F0 melanoma tumour; 6 h,0.60 ± 0.17 % ID/g
same,uptake BRAIN,B16F0 melanoma tumour; 6 h,0.05 ± 0.01 % ID/g
same,uptake HEART,B16F0 melanoma tumour; 6 h,0.24 ± 0.08 % ID/g
same,uptake KIDNEY,B16F0 melanoma tumour; 6 h,2.4 ± 0.4 % ID/g
same,uptake LIVER,B16F0 melanoma tumour; 6 h,2.2 ± 0.6 % ID/g
same,uptake TUMOUR,B16F0 melanoma tumour; 6 h,3.9 ± 0.9 % ID/g
same,tumour standardized uptake value (SUVt),B16F0 melanoma tumour; 24 h,9 ± 2
same,Uptake Lung,B16F0 melanoma tumour; 24 h,0.03 ± 0.01 % ID/g
same,uptake BLOOD,B16F0 melanoma tumour; 24 h,0.04 ± 0.01 % ID/g
same,uptake BRAIN,B16F0 melanoma tumour; 24 h,0.001 % ID/g
same,uptake HEART,B16F0 melanoma tumour; 24 h,0.02 ± 0.01 % ID/g
same,uptake KIDNEY,B16F0 melanoma tumour; 24 h,0.08 ± 0.01 % ID/g
same,uptake LIVER,B16F0 melanoma tumour; 24 h,0.12 ± 0.02 % ID/g
same,uptake TUMOUR,B16F0 melanoma tumour; 24 h,1.0 ± 0.2 % ID/g
CCN(CC)CCNC(=O)c1ccc([18F])cc1 [structure A],reported tumour uptake,melanoma tumour; at 2 h,6.5 % ID/g
same,Typical Tumour: Blood ratio,melanoma tumour,12

# From US20110178396A1, “Nicotinamide Derivatives” (CRC FOR BIOMEDICAL IMAGING DEVELOPMENT LTD., priority 2008, published 2011)
